Source: paper PMC7413516, “Antidepressant-like activity and safety profile evaluation of 1H-imidazo[2,1-f]purine-2,4(3H,8H)-dione derivatives as 5-HT1A receptor partial agonists” (PLoS ONE, 2020)

Molecular target: T1, histaminic H1 receptor (H1R) (Cavia porcellus, UniProt P31389)
T1 construct: from tissue; host or cells: isolated guinea pig ileum
Assay: Smooth muscle relaxant assay: histamine-induced contraction of isolated guinea pig ileum
Conditions: isolated guinea pig small intestine, histamine 2 μM
Experimental: The experiment was carried out according to the method described previously. Male guinea pigs were sacrificed by cervical dislocation. The ileum was rapidly removed, rinsed, and cut into segments of 1.5–2.0 cm length. The tissues were mounted on a jacketed 20 mL organ bath (Tissue Organ Bath System; 750 TOBS, DMT, Denmark) filled with Krebs’s solution (NaCl 120 mM, KCl 5.6 mM, MgCl2 2.2 mM, CaCl2 2.4 mM, NaHCO3 19 mM, glucose 10 mM). The bath was aerated with 95 % O2/5 % CO2 and heated at 37°C. During the 60-min incubation period, the organ was rinsed 4 times with fresh Krebs’s buffer, and the tissues were also pre-stimulated by 60 mM KCl solution. The submaximal contraction induced by histamine (Sigma Aldrich) (2 μM) and carbachol (Sigma Aldrich) (100 μM) was evaluated in the presence and absence of the tested compounds. Amplitudes of contraction values were measured in 4 independent experiments.

T1 sequence (P31389 whole entry): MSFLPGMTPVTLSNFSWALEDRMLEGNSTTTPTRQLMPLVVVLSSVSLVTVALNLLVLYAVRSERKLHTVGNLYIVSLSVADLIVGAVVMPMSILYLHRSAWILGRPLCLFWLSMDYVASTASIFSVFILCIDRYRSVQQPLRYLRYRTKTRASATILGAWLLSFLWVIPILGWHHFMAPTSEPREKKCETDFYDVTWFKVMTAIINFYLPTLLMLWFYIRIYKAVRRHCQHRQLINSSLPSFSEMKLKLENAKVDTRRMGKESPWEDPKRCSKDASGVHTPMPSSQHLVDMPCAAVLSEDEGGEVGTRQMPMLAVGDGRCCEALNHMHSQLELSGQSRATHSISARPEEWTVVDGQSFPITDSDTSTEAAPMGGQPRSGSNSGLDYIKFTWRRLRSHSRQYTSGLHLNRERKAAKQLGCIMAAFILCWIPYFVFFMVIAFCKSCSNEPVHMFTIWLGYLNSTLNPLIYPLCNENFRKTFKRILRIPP

Row | inhibition at 1 µM [%] | SMILES
1 | 94.8 | Cn1c(=O)c2c(nc3n(CCCCN4CCN(c5ccccc5F)CC4)ccn23)n(C)c1=O [AZ-853, 8-(4-(4-(2-fluorophenyl)piperazin-1-yl)butyl)-1,3-dimethyl-1H-imidazo[2,1-f]purine-2,4(3H,8H)-dione]
2 | 99.8 | Cn1c(=O)c2c(nc3n(CCCCN4CCN(c5cccc(C(F)(F)F)c5)CC4)ccn23)n(C)c1=O [AZ-861, 1,3-dimethyl-8-(4-(4-(3-(trifluoromethyl)phenyl)piperazin-1-yl)butyl)-1H-imidazo[2,1-f]purine-2,4(3H,8H)-dione]
